Our source for the IC50 values is the Kinase Knowledgebase extract (Sharma et al. 2016).

Molecules are shown by their SMILES.

The term IC50 denotes the concentration needed to halve the response being measured.

In one assay the target is PIK3CA (human) (UniProt P42336). The assay is described as follows: Inhibition of PIK3CA Kinase Activity.
Chain of PIK3CA (human) (P42336 whole entry, looked up): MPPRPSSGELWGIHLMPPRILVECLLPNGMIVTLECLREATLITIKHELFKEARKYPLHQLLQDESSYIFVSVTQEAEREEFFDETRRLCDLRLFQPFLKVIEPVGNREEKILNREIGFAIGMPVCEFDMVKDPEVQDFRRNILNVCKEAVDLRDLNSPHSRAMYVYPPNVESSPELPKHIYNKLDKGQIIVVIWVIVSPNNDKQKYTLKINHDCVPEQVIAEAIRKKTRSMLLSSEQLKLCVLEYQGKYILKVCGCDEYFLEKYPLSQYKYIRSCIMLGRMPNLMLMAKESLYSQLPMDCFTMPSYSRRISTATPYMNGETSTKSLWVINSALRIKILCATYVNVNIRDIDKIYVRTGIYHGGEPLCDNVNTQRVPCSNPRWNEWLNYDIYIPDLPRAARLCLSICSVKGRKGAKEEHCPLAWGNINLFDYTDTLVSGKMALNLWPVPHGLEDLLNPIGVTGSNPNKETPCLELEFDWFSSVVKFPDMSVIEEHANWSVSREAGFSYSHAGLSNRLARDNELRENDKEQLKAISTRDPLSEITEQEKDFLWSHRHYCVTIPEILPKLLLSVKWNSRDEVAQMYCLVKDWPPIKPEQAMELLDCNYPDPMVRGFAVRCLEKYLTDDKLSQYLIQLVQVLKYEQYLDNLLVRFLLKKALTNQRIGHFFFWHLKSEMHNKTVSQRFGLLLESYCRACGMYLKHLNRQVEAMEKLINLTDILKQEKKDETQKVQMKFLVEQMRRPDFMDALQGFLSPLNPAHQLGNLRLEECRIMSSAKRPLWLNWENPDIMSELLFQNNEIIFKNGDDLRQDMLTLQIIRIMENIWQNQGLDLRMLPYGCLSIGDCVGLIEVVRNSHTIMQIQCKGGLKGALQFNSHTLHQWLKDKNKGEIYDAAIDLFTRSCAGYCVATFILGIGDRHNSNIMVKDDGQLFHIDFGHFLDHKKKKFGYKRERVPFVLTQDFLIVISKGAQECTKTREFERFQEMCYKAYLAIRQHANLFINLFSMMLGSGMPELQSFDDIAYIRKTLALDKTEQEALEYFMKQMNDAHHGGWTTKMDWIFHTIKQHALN
`CCCCCC.Cc1ccc([N+](=O)[O-])cc1S(=O)(=O)N(C)N=Cc1cnn2ccc(I)cc12` yielded a half-maximal inhibitory concentration (IC50) of 23 nM.

As for `CN(N=Cc1cnn2ccc(C#N)cc12)S(=O)(=O)c1cc([N+](=O)[O-])ccc1CCc1ccccn1`, the IC50 came out at 5.8 nM.

The compound `Cc1ccc([N+](=O)[O-])cc1S(=O)(=O)c1nnc(-c2cnn3ccc(Br)cc23)o1` gave a half-maximal inhibitory concentration (IC50) of 84 nM.

For the next assay, the target named is PIK3CB (Human) (UniProt P42338). Put plainly: Inhibition of PIK3CB Kinase Activity.
Chain of PIK3CB (Human) (P42338 whole entry, looked up): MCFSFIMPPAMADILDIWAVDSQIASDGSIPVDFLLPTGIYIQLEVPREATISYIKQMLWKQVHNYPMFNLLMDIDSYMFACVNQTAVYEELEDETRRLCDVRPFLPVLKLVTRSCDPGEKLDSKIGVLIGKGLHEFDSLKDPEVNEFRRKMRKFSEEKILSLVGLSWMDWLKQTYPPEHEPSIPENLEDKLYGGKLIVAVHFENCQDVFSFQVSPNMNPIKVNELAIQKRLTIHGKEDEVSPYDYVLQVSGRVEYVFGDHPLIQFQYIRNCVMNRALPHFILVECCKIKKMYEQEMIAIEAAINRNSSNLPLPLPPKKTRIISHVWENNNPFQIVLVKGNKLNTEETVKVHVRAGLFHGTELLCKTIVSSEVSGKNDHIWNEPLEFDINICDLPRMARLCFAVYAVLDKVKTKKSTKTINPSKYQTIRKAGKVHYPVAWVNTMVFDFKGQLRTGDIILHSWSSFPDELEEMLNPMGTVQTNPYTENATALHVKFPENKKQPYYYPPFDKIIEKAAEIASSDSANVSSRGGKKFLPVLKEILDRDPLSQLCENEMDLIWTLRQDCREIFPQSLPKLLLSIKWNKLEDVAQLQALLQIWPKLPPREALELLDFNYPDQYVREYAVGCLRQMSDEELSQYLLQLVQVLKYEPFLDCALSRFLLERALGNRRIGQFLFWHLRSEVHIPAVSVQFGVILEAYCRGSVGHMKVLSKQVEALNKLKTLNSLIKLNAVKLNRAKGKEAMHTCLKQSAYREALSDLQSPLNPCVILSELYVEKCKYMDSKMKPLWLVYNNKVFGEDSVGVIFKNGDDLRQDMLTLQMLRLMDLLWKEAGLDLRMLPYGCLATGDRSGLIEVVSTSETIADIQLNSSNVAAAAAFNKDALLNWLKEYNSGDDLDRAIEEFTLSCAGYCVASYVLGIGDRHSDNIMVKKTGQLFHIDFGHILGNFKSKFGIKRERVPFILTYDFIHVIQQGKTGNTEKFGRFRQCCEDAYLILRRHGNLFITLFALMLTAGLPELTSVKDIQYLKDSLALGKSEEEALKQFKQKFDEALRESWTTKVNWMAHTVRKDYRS
`CN(N=Cc1cnn2ccc(C#N)cc12)S(=O)(=O)c1cc([N+](=O)[O-])ccc1Cl` gave an IC50 of 94 nM.

For `CCCCCC.Cc1ccc([N+](=O)[O-])cc1S(=O)(=O)N(C)N=Cc1cnn2ccc(I)cc12`, the IC50 amounted to 720 nM.

Turning to `CN(N=Cc1cnn2ccc(C#N)cc12)S(=O)(=O)c1cc([N+](=O)[O-])ccc1CCc1ccccn1`, the IC50 turned out to be 5600 nM.

For the compound `Cc1ccc([N+](=O)[O-])cc1S(=O)(=O)N(C)N=Cc1cnn2ccccc12`, the 50% inhibitory concentration (IC50) was more than 10000 nM.

In the next assay the target is PIK3CD (Human) (UniProt O00329). The assay is described as follows: Inhibition of PIK3CD Kinase Activity.
Chain of PIK3CD (Human) (O00329 whole entry, looked up): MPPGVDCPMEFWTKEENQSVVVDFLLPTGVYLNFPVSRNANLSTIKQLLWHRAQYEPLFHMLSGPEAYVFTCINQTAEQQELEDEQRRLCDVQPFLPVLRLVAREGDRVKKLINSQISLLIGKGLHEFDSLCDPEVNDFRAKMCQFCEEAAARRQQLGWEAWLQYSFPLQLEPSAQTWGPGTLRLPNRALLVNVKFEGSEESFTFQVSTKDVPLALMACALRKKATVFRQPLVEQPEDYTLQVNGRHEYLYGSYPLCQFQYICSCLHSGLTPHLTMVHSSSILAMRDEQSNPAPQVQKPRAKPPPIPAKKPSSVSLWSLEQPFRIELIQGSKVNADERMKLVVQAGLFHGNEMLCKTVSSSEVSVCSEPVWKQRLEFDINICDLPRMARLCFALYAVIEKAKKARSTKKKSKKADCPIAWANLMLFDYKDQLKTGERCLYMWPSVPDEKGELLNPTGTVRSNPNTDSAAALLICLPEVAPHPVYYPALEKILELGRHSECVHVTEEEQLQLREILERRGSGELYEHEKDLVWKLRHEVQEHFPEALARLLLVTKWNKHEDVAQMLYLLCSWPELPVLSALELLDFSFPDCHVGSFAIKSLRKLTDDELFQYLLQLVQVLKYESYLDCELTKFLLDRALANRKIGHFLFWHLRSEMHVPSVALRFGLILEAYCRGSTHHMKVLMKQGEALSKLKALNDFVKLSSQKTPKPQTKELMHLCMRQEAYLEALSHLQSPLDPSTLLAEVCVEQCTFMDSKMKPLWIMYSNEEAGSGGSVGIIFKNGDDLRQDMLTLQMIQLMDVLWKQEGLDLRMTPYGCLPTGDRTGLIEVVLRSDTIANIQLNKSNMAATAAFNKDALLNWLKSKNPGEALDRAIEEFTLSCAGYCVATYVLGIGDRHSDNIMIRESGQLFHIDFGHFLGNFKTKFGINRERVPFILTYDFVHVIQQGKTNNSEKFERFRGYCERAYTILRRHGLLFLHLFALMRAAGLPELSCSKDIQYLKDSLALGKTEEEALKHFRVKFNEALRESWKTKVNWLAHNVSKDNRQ
Regarding `CCCCCC.Cc1ccc([N+](=O)[O-])cc1S(=O)(=O)N(C)N=Cc1cnn2ccc(I)cc12`, the half-maximal inhibitory concentration (IC50) is 240 nM. In other words, the sub-micromolar range.

`CN(N=Cc1cnn2ccc(C#N)cc12)S(=O)(=O)c1cc([N+](=O)[O-])ccc1CCc1ccccn1` gave an IC50 of 200 nM.

Compound `Cc1ccc([N+](=O)[O-])cc1S(=O)(=O)c1nnc(-c2cnn3ccc(Br)cc23)o1` gave an IC50 of 120 nM. This IC50 is about 1.7-fold lower than that of the compound before.
